Source: publication PMC5531278 (Bioorganic & medicinal chemistry letters, 2016)
Read-outs that look alike come from different tables or passages of the source.

Experiments:
GL261-luc2 = test: MTT cell viability assay in GL261-luc2; format: cell-based; details: Mus musculus, 72 h, read-out: MTT assay IC50
CD-1 mice = details: mouse, in vivo
in vitro [1] = details: human, microsomes
in vitro [2] = details: mouse
[3] = Bidirectional Caco-2 cell monolayer permeability; details: human, Caco-2, pH 6.5
Caco-2 cell monolayer = test: Bidirectional Caco-2 cell monolayer permeability; details: based on the Caco-2 permeability study

With `O=C(O)c1cc2ccc(N(Cc3ccccc3)Cc3ccccc3)cc2oc1=O` [4a, 7-(dibenzylamino)-2-oxo-2H-chromene-3-carboxylic acid] the IC50 (GL261-luc2) was > 250 µM, the “Body weights compared to the control group” value (CD-1 mice; ip, 20 mg/kg) was “no significant difference in body weights” and the “Visible toxic effects or mortality” value (CD-1 mice; ip, 20 mg/kg) was “did not show any visible toxic effects or mortality”. For the same compound, the “Body weights compared to the control group” value (CD-1 mice; po, 100 mg/kg) was “no significant difference in body weights”, the “Visible toxic effects or mortality” value (CD-1 mice; po, 100 mg/kg) was “did not show any visible toxic effects or mortality” and the microsomal CLint at 0.1 μM (in vitro [1]) was < 116 µL/min/mg. For the same compound, the microsomal CLint at 0.1 μM (in vitro [2]; microsomes) was < 116 µL/min/mg, the half-life at 0.1 μM (in vitro [2]; microsomes, Half-life Trial 1) was 1.51 h and the half-life at 0.1 μM (in vitro [2]; microsomes, Half-life Trial 2) was 1.23 h. For the same compound, the Papp A→B at 10 µM [3] was 32 ×10⁻⁶ cm/s, the Papp B→A at 10 µM [3] was 6.4 ×10⁻⁶ cm/s and the Absorption (Caco-2 cell monolayer) was ~ 30%.

For `O=C(O)c1cc2ccc(N3CCCC3)cc2oc1=O` [4b], the IC50 (GL261-luc2) was > 250 µM.

In the case of `CCCN(CCC)c1ccc2cc(C(=O)O)c(=O)oc2c1` [4c], the IC50 (GL261-luc2) is reported as > 250 µM.

In the case of `C=CCN(CC=C)c1ccc2cc(C(=O)O)c(=O)oc2c1` [4d], the IC50 (GL261-luc2) is reported as > 250 µM.

In the case of `C#CCN(CC#C)c1ccc2cc(C(=O)O)c(=O)oc2c1` [4e], the IC50 (GL261-luc2) is reported as > 250 µM.

For `CC(C)NCC(O)COc1cccc2ccccc12` (centres unmarked) [Propranolol], the half-life at 0.1 μM (in vitro [2]; liver microsomes, Half-life Trial 2, mouse liver microsomes, 0.1 μM) was 0.158 h.
